Data from PMC11845477, “Exploring the principles behind antibiotics with limited resistance” (Nature Communications, 2025).
Several values for one entry are separate records, joined by “and”; a condition that tells them apart may be missing. Equal entries are not always repeated. Where two headings read alike, the source gives them in different places. Where a SMILES comes first, the peptide text is derived from it. Bridges are numbered along the chain shown (N, C = ends). [ ]: non-standard residue; d: D form. The star is where a group is joined. X1 = NC[C@@H](CC(=O)*)c1cccc(Cl)c1; X2 = CC[C@H](C)CCCCC(=O)*; Dab = NCC[C@H](N)C(=O)O; Dap = NC[C@H](N)C(=O)O

What was measured:
K. pneumoniae = assay type: cell-based, Klebsiella pneumoniae
Experimental: We employed image analysis to quantify bacterial survival under fixed antibiotic concentrations (10xMIC for 4 hours) on E. coli, A. baumannii, K. pneumoniae, and P. aeruginosa. […] Survival rate was quantified by calculating the ratio of the viable cells after antibiotic treatment and the total initial viable cell count.
Fig. 9 Killing kinetics of the studied antibiotics. a Bacterial survival rate in response to toxic antibiotic exposure. […] The bars indicate the survival rate (log10) compared to the untreated initial viable cell count (see “Methods”). Data are presented as mean values of 5 biological replicates ± SEM. The antibiotic group differentiation is denoted by color. […] Survival was estimated by measuring cell viability (colony-forming units/ml) of 2 biologically independent strains following a 4-hour exposure to different concentrations of 16 antibiotics on E. coli ATCC25922 (for further details, see “Methods”). The antibiotic concentration that kills 99.9% of the E. coli population is indicated as a vertical dotted line (see Supplementary Data 5). Error bars represent standard error calculated from the colony counts by Poisson’s model. A Hill function was fitted to the dose-response data from two biological replicates, producing sigmoidal curves (Supplementary Data 5). The Hill coefficient reflects how steeply the survival rate decreases in response to increasing antibiotic concentration ([…]). […] X-axis label colors indicate mode of action groups. For detailed information on antibiotic and bacterial species, see Supplementary Data 1. Source data are provided as a Source Data file.
In this current study, the killing kinetics of each antibiotic was measured according to a previously established experimental protocol[62] with minor modifications. During this assay, the bacterial cultures were exposed to antibiotics in 96-well assay plates and their viability after 4 hours of exposure was quantified by two methods: i) microplating and colony counting or ii) fluorescent staining of cells and counting of the fluorescent units.
Specifically, these experiments were performed in the following steps: (1) Preparation of bacterial stocks. Single colonies from each strain were isolated and grown overnight in MHB medium at 37 °C, 160 rpm. In case of the fluorescently tagged E. coli strains, the medium was supplemented with 10 μg/mL chloramphenicol, to maintain the pZS2R plasmid. Overnight cultures were diluted 1:5000 and grown to an optical density at 600 nm (OD600) of 0.25. These cultures were concentrated by centrifugation and small aliquots of 50 μL containing ~2.2 × 10^9 cells were frozen in glycerol (stored at −80 °C). (2) Preparing assay plates with antibiotics. 96-well plates were filled with 235 μL MHB and supplemented with antibiotics using an automated digital dispenser (D300e, Tecan). In the case of SCH79797, we used minimal media. […] For testing the clearance efficacy of each antibiotic at a single lethal dose, the 10x of the MIC for each antibiotic-strain pair were prepared in at least three replicates. (3) Antibiotic exposure. During the dose response assay, frozen cultures of the E. coli strains expressing YFP and mCherry were thawed and mixed at a 1:1 ratio, diluted 1:1000 in 30 mL MHB and incubated for 45 min at 37 °C and 160 rpm. During the single-dose assay, the frozen cultures of experimental strains (E. coli, K. pneumoniae, A. baumannii) were also thawed and diluted 1:1000 in 30 mL MHB and incubated at 37 °C to reach an OD of 0.25 and 160 rpm. Following this incubation phase, these bacterial cultures were then aliquoted into the 96-well deep-well antibiotic plates (15 μL culture; total volume of 250 μL) at an inoculum density of about 10^7 CFU.

[1] = system: polymyxin B-resistant lines of A. baumannii (AB-SEN); assay: Cross-resistance of polymyxin B resistant evolved lines, relative MIC; assay type: cell-based, Acinetobacter baumannii
From the text: To further investigate potential overlaps in resistance mechanisms, we examined the extent of cross-resistance between polymyxin B and other antibiotics that target the bacterial membrane.
Fig. 7 Cross-resistance of polymyxin B resistant lines to ST and DT permeabilizer antibiotics. […] 3 independently evolved lines from each investigated species were studied, including E. coli (EC), K. pneumoniae (KP), A. baumannii (AB), and P. aeruginosa (PA). Gray color of the main heatmap indicates combinations not tested due to intrinsic resistance of ancestor strain. The additional heatmap to the right depicts genes mutated in each polymyxin B-adapted line and their involvement in specific cellular processes based on KEGG (Kyoto Encyclopedia of Genes and Genomes) and COG (Clusters of Orthologous Genes) databases. The distances between antibiotics were computed using the Euclidean distance method based on the log-transformed MIC values. The clustering was performed using the complete linkage method. […] For detailed information on antibiotic and bacterial strain abbreviations, see Supplementary Data 1. Source data are provided as a Source Data file.
A robotic liquid handling system was used to automatically prepare a 11 to 16-step serial dilution in 384-well microtiter plates (Greiner). A final concentration of 5 × 10^5 bacterial cells per mL were inoculated into each well containing 60 µL MHB medium. Bacterial cultures were incubated at 37 °C with continuous shaking (Infors shaker, 900 rpm with 3 mm throw) for 18 hours (2 replicates from each). Cell growth was monitored by measuring the optical density (OD600 values, using Biotek Synergy microplate reader). MIC was defined as the antibiotic concentration of complete growth inhibition (i.e., OD600 < 0.05). Relative MIC was calculated as follows:1 relativeMIC=MICevolved/MICancestor […]
Supplementary Figure 6. Susceptibility of Polymyxin B resistant lines to other ST and DT […]
dividing the MIC of the evolved line by that of the corresponding ancestor) of 12 polymyxin B resistant lines to ST and DT permeabilizer antibiotics used in this study. Each data point represents a distinct adaptive laboratory evolved polymyxin B resistant line. Boxplots show the median, first and third quartiles, with whiskers showing the 5th and 95th percentiles. P values were calculated using Dunn's post-hoc test with Benjamini-Hochberg correction (NS indicates p > 0.05, ** / **** indicates p < 0.01 / 0.0001, respectively). The resistance level of polymyxin B resistant lines to polymyxin B (PMB), […]
For detailed information on antibiotic and bacterial strain abbreviations, see Supplementary Table 1. Source data are provided as a Source […]
(1 picture or pasted object on this page, not shown here)

[2] = AB-SEN, polymyxin B-resistant evolved line 2, MIC evolved/MIC ancestor
[3] = AB-SEN, polymyxin B-resistant evolved line 6, MIC evolved/MIC ancestor
[4] = AB-SEN, polymyxin B-resistant evolved line 9, MIC evolved/MIC ancestor
[5] = polymyxin B-resistant evolved line 2 of AB-SEN, MIC relative to ancestor
[6] = polymyxin B-resistant evolved line 6 of AB-SEN, MIC relative to ancestor
[7] = polymyxin B-resistant evolved line 9 of AB-SEN, MIC relative to ancestor
[8] = Klebsiella pneumoniae, survival at 10xMIC for 4 hours, single replicates, (fig 9a source data)

Molecule | Relative MIC [1, 2] | Relative MIC [1, 3] | Relative MIC [1, 4] | Relative MIC [1, 5] | Relative MIC [1, 6] | Relative MIC [1, 7] | other results
CN[C@@H]1[C@@H](O[C@H]2O[C@H](CO)[C@@H](N)[C@H](O)[C@H]2O)OC2C[C@@H](N)[C@@H](O[C@H]3[C@H](O)[C@@H](O)[C@H](N)C[C@@H]3N)OC2[C@@H]1O (stereo partly shown) [Apramycin] | – | – | – | – | – | – | Survival rate (log10) (K. pneumoniae; Klebsiella pneumoniae, survival at 10xMIC for 4 hours, single replicates, (fig 9a source data), listed as APR): -1.19 log10 and -1.1 log10 and -1.062 log10 and -0.9595 log10 and -0.945 log10
Nc1nc(-n2cc(C(=O)O)c(=O)c3cc(F)c(N4CC(O)C4)c(Cl)c32)c(F)cc1F [Delafloxacin] | – | – | – | – | – | – | Survival rate (log10) (K. pneumoniae; Klebsiella pneumoniae, survival at 10xMIC for 4 hours, single replicates, (fig 9a source data), listed as DEL): -0.7389 log10 and -0.7966 log10 and -0.7399 log10 and -1.048 log10 and -0.8397 log10
CN(C)[C@@H]1C(O)=C(C(N)=O)C(=O)[C@@]2(O)C(O)=C3C(=O)c4c(O)c(NC(=O)CN5CCCC5)cc(F)c4C[C@H]3C[C@@H]12 [Eravacycline] | – | – | – | – | – | – | Survival rate (log10) (K. pneumoniae; Klebsiella pneumoniae, survival at 10xMIC for 4 hours, single replicates, (fig 9a source data), listed as ERA): -0.6401 log10 and -0.9022 log10 and -0.9087 log10 and -0.8384 log10 and -0.7454 log10
CNC(C)C1CCC(N)C(OC2C(N)CC(N)C(OC3OCC(C)(O)C(NC)C3O)C2O)O1 (stereo not shown) [Gentamicin] | – | – | – | – | – | – | Survival rate (log10) (K. pneumoniae; Klebsiella pneumoniae, survival at 10xMIC for 4 hours, single replicates, (fig 9a source data), listed as GEN): -0.9685 log10 and -0.989 log10 and -1.08 log10 and -0.8281 log10 and -1.091 log10
CC[C@H](C)CCCCC(=O)N[C@@H](CCN)C(=O)N[C@H](C(=O)N[C@@H](CCN)C(=O)N[C@H]1CCNC(=O)[C@H]([C@@H](C)O)NC(=O)[C@H](CCN)NC(=O)[C@H](CCN)NC(=O)[C@H](CC(C)C)NC(=O)[C@@H](Cc2ccccc2)NC(=O)[C@H](CCN)NC1=O)[C@@H](C)O [Polymyxin B] (X2-[Dab]T[Dab][Dab][Dab][dF]L[Dab][Dab]T; lactam 4-C (inferred); N-terminus assumed) | 64 | 1024 | 64 | 64 | 1024 | 64 | Survival rate (log10) (K. pneumoniae; Klebsiella pneumoniae, survival at 10xMIC for 4 hours, single replicates, (fig 9a source data), listed as PMB): -3.309 log10 and -3.392 log10 and -3.139 log10 and -2.914 log10 and -3.825 log10
CC(C)c1ccc(Cn2ccc3c4c(N)nc(NC5CC5)nc4ccc32)cc1 [SCH79797] | 1 | 0.5 | 1 | 1 | 0.5 | 1 | bacterial survival after toxic antibiotic exposure (K. pneumoniae; 10xMIC for 4 hours): eliminated the entire bacterial population; Survival rate (log10) (K. pneumoniae; [8]): -6 log10
CC(C)C[C@@H]1NC(=O)[C@@H](Cc2ccccc2)NC(=O)[C@H](CCN)NC(=O)[C@@H](NC(=O)[C@H](CN)NC(=O)[C@@H](NC(=O)C[C@H](CN)c2cccc(Cl)c2)[C@@H](C)O)CCNC(=O)[C@H]([C@@H](C)O)NC(=O)[C@H](CCN)NC(=O)[C@H](CCN)NC1=O [SPR206] (X1-T[Dap][Dab][Dab][dF]L[Dab][Dab]T; lactam 3-C (inferred); N-terminus assumed) | 128 | 2048 | 128 | 128 | 2048 | 128 | Survival rate (log10) (K. pneumoniae; Klebsiella pneumoniae, survival at 10xMIC for 4 hours, single replicates, (fig 9a source data), listed as SPR): -4.671 log10 and -4.37 log10 and -3.671 log10
C[C@@H](O)[C@H]1C(=O)N2C(C(=O)O)=C(S[C@H]3CC[S@@+]([O-])C3)S[C@H]12 [Sulopenem] | – | – | – | – | – | – | Survival rate (log10) (K. pneumoniae; Klebsiella pneumoniae, survival at 10xMIC for 4 hours, single replicates, (fig 9a source data), listed as SUO): -0.7658 log10 and -1.06 log10 and -0.9043 log10 and -0.6919 log10 and -1.504 log10
POL7306 | 32 | 32 | 8 | 32 | 32 | 8 | Survival rate (log10) (K. pneumoniae): -3.973 log10 and -4.193 log10; Survival rate (log10) (K. pneumoniae; [8]): -4.671 log10
Tridecaptin M152-P3 | – | – | – | – | – | – | Survival rate (log10) (K. pneumoniae; Klebsiella pneumoniae, survival at 10xMIC for 4 hours, single replicates, (fig 9a source data), listed as TRD): -2.838 log10 and -3.629 log10 and -3.392 log10 and -4.671 log10
colistin | 32 | 512 | 32 | 32 | 512 | 32 | Survival rate (log10) (K. pneumoniae; Klebsiella pneumoniae, survival at 10xMIC for 4 hours, single replicates, (fig 9a source data), listed as COL): -3.893 log10 and -3.973 log10 and -4.193 log10 and -4.37 log10
